Data taken from patent US20250368634A1, “PHENYL AMIDE COMPOUNDS AND METHODS OF USE” (SCHRÖDINGER, INC., priority 2022, published 2025).

biological target: SOS1-KRas (G12C) (Homo sapiens (Human), UniProt Q07889); test: SOS1-KRas (G12C) FRET Assay; type: binding; details: not given
Sequence (Q07889 564-1049, stated change not applied): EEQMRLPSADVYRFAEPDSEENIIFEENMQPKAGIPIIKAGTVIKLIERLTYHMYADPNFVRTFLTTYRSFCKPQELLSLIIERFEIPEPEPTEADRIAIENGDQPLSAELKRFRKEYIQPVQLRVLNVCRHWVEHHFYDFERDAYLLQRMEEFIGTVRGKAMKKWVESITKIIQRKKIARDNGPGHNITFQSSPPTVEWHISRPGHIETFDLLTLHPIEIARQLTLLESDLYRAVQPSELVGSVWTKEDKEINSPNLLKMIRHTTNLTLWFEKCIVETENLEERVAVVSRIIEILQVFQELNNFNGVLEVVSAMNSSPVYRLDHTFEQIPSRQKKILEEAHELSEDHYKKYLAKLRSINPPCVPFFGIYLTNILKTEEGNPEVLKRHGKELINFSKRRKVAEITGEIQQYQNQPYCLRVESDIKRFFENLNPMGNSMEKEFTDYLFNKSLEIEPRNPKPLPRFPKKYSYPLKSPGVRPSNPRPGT

Row | IC50 [nM] | SMILES
1 | 77.3 | C[C@@H](NC(=O)c1cc(N2CCOCC2)c(F)cc1NC12CC(N(C)C)(C1)C2)c1cccc(C(F)F)c1F [Example 53, (R)—N-(1-(3-(difluoromethyl)-2-fluorophenyl)ethyl)-2-((3-(dimethylamino)bicyclo[1.1.1]pentan-1-yl)amino)-4-fluoro-5-morpholinobenzamide]
2 | 10.5 | C[C@@H](NC(=O)c1cc(-c2ccc(=O)n(C)c2)c(F)cc1NC1CCN(C)CC1)c1cccc(C(F)F)c1F [Example 62, (R)-N-(1-(3-(difluoromethyl)-2-fluorophenyl)ethyl)-4-fluoro-5-(1-methyl-6-oxo-1,6-dihydropyridin-3-yl)-2-((1-methylpiperidin-4-yl)amino)benzamide]

same assay, conditions: inhibition of SOS1:KRAS interaction; 0.5 nM His10-SOS1 (res. 564-1049), 2.5 nM GST-KRAS (res. 1-169, G12C); 2 hrs at RT

Row | IC50 [nM] | SMILES
3 | 138 | C[C@@H](NC(=O)c1cc(N2CC(F)(F)C[C@@H]2C)c(F)cc1NC1CCN(C)CC1)c1cccc(C(F)F)c1F [Example 37, 5-((S)-4,4-difluoro-2-methylpyrrolidin-1-yl)-N-((R)-1-(3-(difluoromethyl)-2-fluorophenyl)ethyl)-4-fluoro-2-((1-methylpiperidin-4-yl)amino)benzamide]
4 | 35.7 | C[C@@H](NC(=O)c1cc(N2CC3COCC(C3)C2)c(F)cc1NC1CCN(C)CC1)c1cccc(C(F)F)c1F [Example 38, 5-(3-oxa-7-azabicyclo[3.3.1]nonan-7-yl)-N-((R)-1-(3-(difluoromethyl)-2-fluorophenyl)ethyl)-4-fluoro-2-((1-methylpiperidin-4-yl)amino)benzamide]
5 | 21.9 | C[C@@H](NC(=O)c1cc(N2CCOC(F)(F)C2)c(F)cc1NC1CCN(C)CC1)c1cccc(C(F)F)c1F [Example 40, (R)-N-(1-(3-(difluoromethyl)-2-fluorophenyl)ethyl)-5-(2,2-difluoromorpholino)-4-fluoro-2-((1-methylpiperidin-4-yl)amino)benzamide]
6 | 33.3 | C[C@@H](NC(=O)c1cc(N2CC3CCCC(C2)O3)c(F)cc1NC1CCN(C)CC1)c1cccc(C(F)F)c1F [Example 41, 5-(9-oxa-3-azabicyclo[3.3.1]nonan-3-yl)-N-((R)-1-(3-(difluoromethyl)-2-fluorophenyl)ethyl)-4-fluoro-2-((1-methylpiperidin-4-yl)amino)benzamide]
7 | 74.6 | Cc1c(C#N)cccc1[C@@H](C)NC(=O)c1cc(N2CCOCC2)c(F)cc1NC1CCN(C)CC1 [Example 46, (R)—N-(1-(3-cyano-2-methylphenyl)ethyl)-4-fluoro-2-((1-methylpiperidin-4-yl)amino)-5-morpholinobenzamide]
8 | 33.7 | C[C@@H](NC(=O)c1cc(N2CCOCC2)c(F)cc1NCCN)c1cccc(C(F)F)c1F [Example 47, (R)-2-((2-aminoethyl)amino)-N-(1-(3-(difluoromethyl)-2-fluorophenyl)ethyl)-4-fluoro-5-morpholinobenzamide]
9 | 63.8 | C[C@@H](NC(=O)c1cc(N2CCOCC2)c(F)cc1NCCN(C)C)c1cccc(C(F)F)c1F [Example 48, (R)—N-(1-(3-(difluoromethyl)-2-fluorophenyl)ethyl)-2-((2-(dimethylamino)ethyl)amino)-4-fluoro-5-morpholinobenzamide]
10 | 333 | C[C@@H](NC(=O)c1cc(N2CCOCC2)c(F)cc1NC(C)(C)C#N)c1cccc(C(F)F)c1F [Example 51, (R)-2-((2-cyanopropan-2-yl)amino)-N-(1-(3-(difluoromethyl)-2-fluorophenyl)ethyl)-4-fluoro-5-morpholinobenzamide]
11 | 64.8 | C[C@@H](NC(=O)c1cc(N2CCOCC2)c(F)cc1NC(C)(C)CN(C)C)c1cccc(C(F)F)c1F [Example 52, (R)—N-(1-(3-(difluoromethyl)-2-fluorophenyl)ethyl)-2-((1-(dimethylamino)-2-methylpropan-2-yl)amino)-4-fluoro-5-morpholinobenzamide]
12 | 74.1 | C[C@@H](NC(=O)c1cc(N2CCOCC2)c(F)cc1NC1(C)CN(C)C1)c1cccc(C(F)F)c1F [Example 54, (R)—N-(1-(3-(difluoromethyl)-2-fluorophenyl)ethyl)-2-((1,3-dimethylazetidin-3-yl)amino)-4-fluoro-5-morpholinobenzamide]
13 | 34.8 | Cc1c([C@@H](C)NC(=O)c2cc(-c3ccncc3)c(F)cc2NC2CCN(C)CC2)cccc1C(F)(F)F [Example 56, (R)-4-fluoro-N-(1-(2-methyl-3-(trifluoromethyl)phenyl)ethyl)-2-((1-methylpiperidin-4-yl)amino)-5-(pyridin-4-yl)benzamide]
14 | 9.8 | C[C@@H](NC(=O)c1cc(-c2ccncc2)c(F)cc1NC1CCN(C)CC1)c1cccc(C(F)F)c1F [Example 57, (R)—N-(1-(3-(difluoromethyl)-2-fluorophenyl)ethyl)-4-fluoro-2-((1-methylpiperidin-4-yl)amino)-5-(pyridin-4-yl)benzamide]
15 | 11 | C[C@@H](NC(=O)c1cc(-c2ccn(C)c(=O)c2)c(F)cc1NC1CCN(C)CC1)c1cccc(C(F)F)c1F [Example 60, (R)—N-(1-(3-(difluoromethyl)-2-fluorophenyl)ethyl)-4-fluoro-5-(1-methyl-2-oxo-1,2-dihydropyridin-4-yl)-2-((1-methylpiperidin-4-yl)amino)benzamide]
16 | 130 | Cc1c([C@@H](C)NC(=O)c2cc(-c3cnoc3)c(F)cc2NC2CCN(C)CC2)cccc1C(F)(F)F [Example 61, (R)-4-fluoro-5-(isoxazol-4-yl)-N-(1-(2-methyl-3-(trifluoromethyl)phenyl)ethyl)-2-((1-methylpiperidin-4-yl)amino)benzamide]
17 | 14.9 | C[C@@H](NC(=O)c1cc(-c2ccncc2F)c(F)cc1NC1CCN(C)CC1)c1cccc(C(F)F)c1F [Example 63, (R)-N-(1-(3-(difluoromethyl)-2-fluorophenyl)ethyl)-4-fluoro-5-(3-fluoropyridin-4-yl)-2-((1-methylpiperidin-4-yl)amino)benzamide]
18 | 8.3 | Cc1cc(-c2cc(C(=O)N[C@H](C)c3cccc(C(F)F)c3F)c(NC3CCN(C)CC3)cc2F)ccn1 [Example 64, (R)-N-(1-(3-(difluoromethyl)-2-fluorophenyl)ethyl)-4-fluoro-2-((1-methylpiperidin-4-yl)amino)-5-(2-methylpyridin-4-yl)benzamide]
19 | 6.9 | C[C@@H](NC(=O)c1cc(-c2ccnnc2)c(F)cc1NC1CCN(C)CC1)c1cccc(C(F)F)c1F [Example 65, (R)-N-(1-(3-(difluoromethyl)-2-fluorophenyl)ethyl)-4-fluoro-2-((1-methylpiperidin-4-yl)amino)-5-(pyridazin-4-yl)benzamide]

Row | SMILES | IC50 [nM]
20 | C[C@@H](NC(=O)c1cc(N2CCC(F)(F)C2)c(F)cc1N[C@@H]1CN2CCC1CC2)c1cccc(C(F)F)c1F [Example 26, N—((R)-1-(3-(difluoromethyl)-2-fluorophenyl)ethyl)-5-(3,3-difluoropyrrolidin-1-yl)-4-fluoro-2-(((S)-quinuclidin-3-yl)amino)benzamide] | 88.8
21 | C[C@@H](NC(=O)c1cc(N2CCC(F)(F)C2)c(F)cc1N[C@H]1CN2CCC1CC2)c1cccc(C(F)F)c1F [Example 27, N—((R)-1-(3-(difluoromethyl)-2-fluorophenyl)ethyl)-5-(3,3-difluoropyrrolidin-1-yl)-4-fluoro-2-(((R)-quinuclidin-3-yl)amino)benzamide] | 22.5
22 | C[C@@H](NC(=O)c1cc(N2CCC2)c(F)cc1N[C@@H]1CN2CCC1CC2)c1cccc(C(F)F)c1F [Example 28, 5-(azetidin-1-yl)-N—((R)-1-(3-(difluoromethyl)-2-fluorophenyl)ethyl)-4-fluoro-2-(((S)-quinuclidin-3-yl)amino)benzamide] | 61.3
23 | C[C@@H](NC(=O)c1cc(N2CCC2)c(F)cc1N[C@H]1CN2CCC1CC2)c1cccc(C(F)F)c1F [Example 29, 5-(azetidin-1-yl)-N—((R)-1-(3-(difluoromethyl)-2-fluorophenyl)ethyl)-4-fluoro-2-(((R)-quinuclidin-3-yl)amino)benzamide] | 205
24 | C[C@@H](NC(=O)c1cc(N2CCCC2)c(F)cc1N[C@@H]1CN2CCC1CC2)c1cccc(C(F)F)c1F [Example 32, N—((R)-1-(3-(difluoromethyl)-2-fluorophenyl)ethyl)-4-fluoro-5-(pyrrolidin-1-yl)-2-(((S)-quinuclidin-3-yl)amino)benzamide] | 133
25 | C[C@@H](NC(=O)c1cc(N2CCCC2)c(F)cc1N[C@H]1CN2CCC1CC2)c1cccc(C(F)F)c1F [Example 33, N—((R)-1-(3-(difluoromethyl)-2-fluorophenyl)ethyl)-4-fluoro-5-(pyrrolidin-1-yl)-2-(((R)-quinuclidin-3-yl)amino)benzamide] | 35
26 | C[C@@H](NC(=O)c1cc(N2C3CCCC2COC3)c(F)cc1NC1CCN(C)CC1)c1cccc(C(F)F)c1F [Example 39, 5-(3-oxa-9-azabicyclo[3.3.1]nonan-9-yl)-N-((R)-1-(3-(difluoromethyl)-2-fluorophenyl)ethyl)-4-fluoro-2-((1-methylpiperidin-4-yl)amino)benzamide] | 111
27 | C[C@@H](NC(=O)c1cc(N2CCOCC2)c(F)cc1N[C@@H]1CN2CCC1CC2)c1cccc(C(C)(F)F)c1F [Example 42, N—((R)-1-(3-(1,1-difluoroethyl)-2-fluorophenyl)ethyl)-4-fluoro-5-morpholino-2-(((S)-quinuclidin-3-yl)amino)benzamide] | 49.5
28 | C[C@@H](NC(=O)c1cc(N2CCOCC2)c(F)cc1N[C@H]1CN2CCC1CC2)c1cccc(C(C)(F)F)c1F [Example 43, N—((R)-1-(3-(1,1-difluoroethyl)-2-fluorophenyl)ethyl)-4-fluoro-5-morpholino-2-(((R)-quinuclidin-3-yl)amino)benzamide] | 15.1
29 | Cc1c(C#N)cccc1[C@@H](C)NC(=O)c1cc(N2CCOCC2)c(F)cc1N[C@@H]1CN2CCC1CC2 [Example 44, N—((R)-1-(3-cyano-2-methylphenyl)ethyl)-4-fluoro-5-morpholino-2-(((S)-quinuclidin-3-yl)amino)benzamide] | 210
30 | Cc1c(C#N)cccc1[C@@H](C)NC(=O)c1cc(N2CCOCC2)c(F)cc1N[C@H]1CN2CCC1CC2 [Example 45, N—((R)-1-(3-cyano-2-methylphenyl)ethyl)-4-fluoro-5-morpholino-2-(((R)-quinuclidin-3-yl)amino)benzamide] | 69.2
